These results are taken from US20130071854A1, “METHODS FOR THE IDENTIFICATION AND CHARACTERIZATION OF HDAC INTERACTING COMPOUNDS” (priority 2009, published 2013).

Broadly, the IC50 is the point on the concentration scale where inhibition reaches its midpoint.

The target of one experiment is HDAC3-NCoR complex (Homo sapiens, UniProt O15379). The experiment in a line: Chemoproteomic binding profiling, K562 cell extract, SAHA/ITF2357 probe matrix (Kd app).
For experiment [1], the target named is MiDAC complex (HDAC1/2, DNTTIP1, CDYL, MIDEAS) (Homo sapiens, UniProt Q13547+Q92769). Described as above. More on the design: rows headed: Kd^app CDYL; other: protein CDYL; MiDAC complex. The conditions noted are these: protein CDYL.
The next experiment concerns the target T1, HDAC8 (Homo sapiens, UniProt Q9BY41).
T1 construct: used to probe endogenous HDACs in K562 whole cell extracts; endogenous in cells
Described as above. As to conditions: protein HDAC8; class I HDAC.

The next experiment addresses T2, HDAC3 (Homo sapiens, UniProt O15379).
T2 construct: used to probe endogenous HDACs in K562 whole cell extracts; endogenous in cells
The description is as above. As to conditions: for Kd: protein HDAC3, NCoR complex.

For another experiment, the target named is T3, HDAC2 (Homo sapiens, UniProt Q92769).
T3 construct: used to probe endogenous HDACs in K562 whole cell extracts; endogenous in cells
The experiment is described as above. As to conditions: protein HDAC2; class I HDAC.

Another experiment deals with T4, HSPD1 (Homo sapiens, UniProt P10809).
T4 construct: endogenous in cells
As to the kind of experiment: Competition binding assay in cell lysate, affinity matrix, MS.

The next experiment concerns GATAD2B. As to the kind of experiment: Competition binding assay in cell lysate, affinity matrix, MS (Mi-2/NuRD interactor). As to conditions: K-562 cell lysate.
The target of the next experiment is T5, ISOC1 (Homo sapiens, UniProt Q96CN7).
T5 construct: endogenous in cells
T5 sequence (Q96CN7 1-298): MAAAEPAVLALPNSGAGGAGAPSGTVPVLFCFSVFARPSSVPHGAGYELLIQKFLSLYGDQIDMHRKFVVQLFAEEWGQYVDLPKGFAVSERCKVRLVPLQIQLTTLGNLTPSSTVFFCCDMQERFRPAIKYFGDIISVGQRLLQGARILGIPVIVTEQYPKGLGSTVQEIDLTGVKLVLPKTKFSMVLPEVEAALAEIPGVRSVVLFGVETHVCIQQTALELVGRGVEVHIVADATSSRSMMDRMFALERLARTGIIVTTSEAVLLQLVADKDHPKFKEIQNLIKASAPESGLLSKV
As to the kind of experiment: Competition binding assay in cell lysate, affinity matrix, MS.

The next experiment deals with MBD3. The experiment in a line: Competition binding assay in cell lysate, affinity matrix, MS (Mi-2/NuRD interactor). As to conditions: K-562 cell lysate.
The target in another experiment is T6, BZW2 (Homo sapiens, UniProt Q9Y6E2).
T6 construct: endogenous in cells
T6 sequence (Q9Y6E2 1-419): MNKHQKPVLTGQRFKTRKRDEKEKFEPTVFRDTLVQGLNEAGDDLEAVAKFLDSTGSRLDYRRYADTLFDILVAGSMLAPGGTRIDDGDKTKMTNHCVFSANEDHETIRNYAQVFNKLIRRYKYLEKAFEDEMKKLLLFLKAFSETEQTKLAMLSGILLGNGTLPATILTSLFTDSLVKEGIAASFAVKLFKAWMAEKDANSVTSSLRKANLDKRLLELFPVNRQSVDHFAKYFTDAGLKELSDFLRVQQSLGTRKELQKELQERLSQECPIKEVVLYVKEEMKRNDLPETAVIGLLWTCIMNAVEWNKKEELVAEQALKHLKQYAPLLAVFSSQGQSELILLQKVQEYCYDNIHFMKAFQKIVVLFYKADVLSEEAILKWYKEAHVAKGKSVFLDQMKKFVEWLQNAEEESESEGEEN
As to the kind of experiment: Competition binding assay in cell lysate, affinity matrix, MS.

Another experiment relates to SMARCC2. As to the kind of experiment: Competition binding assay in cell lysate, affinity matrix, MS (SMRT/NCoR interactor).
For the next experiment, the system named is MTA2. The experiment in a line: Competition binding assay in cell lysate, affinity matrix, MS (Mi-2/NuRD interactor).
The next experiment has as its system DNTTIP1. As to the kind of experiment: Competition binding assay in cell lysate, affinity matrix, MS. The conditions noted are these: K-562 cell lysate.
The next experiment concerns the target T7, ALDH2 (Homo sapiens, UniProt P05091).
T7 construct: endogenous in cells
T7 sequence (P05091 18-517): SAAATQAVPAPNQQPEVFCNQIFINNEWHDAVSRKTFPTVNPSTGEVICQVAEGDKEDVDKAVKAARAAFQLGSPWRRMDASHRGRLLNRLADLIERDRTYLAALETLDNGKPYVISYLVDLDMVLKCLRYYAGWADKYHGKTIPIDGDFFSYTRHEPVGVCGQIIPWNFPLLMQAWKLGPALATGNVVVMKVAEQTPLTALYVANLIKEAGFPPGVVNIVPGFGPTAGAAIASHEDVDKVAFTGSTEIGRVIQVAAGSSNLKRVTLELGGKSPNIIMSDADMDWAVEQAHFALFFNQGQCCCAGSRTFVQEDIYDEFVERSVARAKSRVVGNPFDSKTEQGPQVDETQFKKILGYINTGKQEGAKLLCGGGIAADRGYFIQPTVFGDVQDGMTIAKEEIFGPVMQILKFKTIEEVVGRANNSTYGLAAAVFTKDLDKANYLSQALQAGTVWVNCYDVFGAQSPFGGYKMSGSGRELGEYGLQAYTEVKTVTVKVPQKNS
The description is as above.

The next experiment concerns MTA3. As to the kind of experiment: Competition binding assay in cell lysate, affinity matrix, MS (Mi-2/NuRD interactor).
The subject of another experiment is RBBP7. The experiment in a line: Competition binding assay in cell lysate, affinity matrix, MS (Sin3/Mi2-NuRD interactor). As to conditions: K-562 cell lysate.
Setting [2] is: protein GPS2, read-out: Kd^app GPS2.
[3] abbreviates: protein NCOR1, read-out: Kd^app NCOR1.
Where [4] appears, read: protein NCOR2, read-out: Kd^app NCOR2.
[5] abbreviates: protein TBL1X, read-out: Kd^app TBL1X.
Setting [6] is: protein TBL1XR1, read-out: Kd^app TBL1XR1.
Where [7] appears, read: mix of Jurkat and Ramos cell lysates.

Several values for one entry are separate records, joined by “and”; a condition that tells them apart may be missing. Equal entries are not always repeated. Where two headings read alike, the source gives them in different places.

T4 sequence (P10809 27-573): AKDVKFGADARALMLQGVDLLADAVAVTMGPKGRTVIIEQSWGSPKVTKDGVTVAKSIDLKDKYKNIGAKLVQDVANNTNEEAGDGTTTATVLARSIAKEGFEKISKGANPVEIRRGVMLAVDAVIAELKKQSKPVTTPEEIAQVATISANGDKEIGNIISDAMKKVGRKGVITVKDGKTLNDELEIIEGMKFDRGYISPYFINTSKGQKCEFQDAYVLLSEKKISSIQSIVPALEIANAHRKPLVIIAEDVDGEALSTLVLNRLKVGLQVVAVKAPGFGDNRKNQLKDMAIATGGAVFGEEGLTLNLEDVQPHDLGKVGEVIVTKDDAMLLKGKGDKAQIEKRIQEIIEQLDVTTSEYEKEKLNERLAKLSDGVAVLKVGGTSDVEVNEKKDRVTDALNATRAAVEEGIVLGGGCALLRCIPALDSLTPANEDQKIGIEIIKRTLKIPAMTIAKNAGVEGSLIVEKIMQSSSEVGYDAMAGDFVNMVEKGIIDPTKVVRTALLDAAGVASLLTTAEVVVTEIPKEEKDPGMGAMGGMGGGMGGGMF
T2 sequence (O15379 whole entry): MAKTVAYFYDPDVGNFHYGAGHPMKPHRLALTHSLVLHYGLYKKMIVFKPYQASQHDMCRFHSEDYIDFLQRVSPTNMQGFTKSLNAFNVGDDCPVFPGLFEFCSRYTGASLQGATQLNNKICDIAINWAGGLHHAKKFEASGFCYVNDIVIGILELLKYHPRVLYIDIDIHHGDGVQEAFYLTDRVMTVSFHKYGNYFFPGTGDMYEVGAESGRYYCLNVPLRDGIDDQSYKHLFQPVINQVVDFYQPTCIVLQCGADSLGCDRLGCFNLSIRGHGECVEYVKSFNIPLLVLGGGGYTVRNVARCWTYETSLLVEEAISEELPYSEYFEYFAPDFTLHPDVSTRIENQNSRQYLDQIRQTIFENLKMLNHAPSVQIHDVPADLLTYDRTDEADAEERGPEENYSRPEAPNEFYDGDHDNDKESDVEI
T2 sequence (O75376 whole entry partner): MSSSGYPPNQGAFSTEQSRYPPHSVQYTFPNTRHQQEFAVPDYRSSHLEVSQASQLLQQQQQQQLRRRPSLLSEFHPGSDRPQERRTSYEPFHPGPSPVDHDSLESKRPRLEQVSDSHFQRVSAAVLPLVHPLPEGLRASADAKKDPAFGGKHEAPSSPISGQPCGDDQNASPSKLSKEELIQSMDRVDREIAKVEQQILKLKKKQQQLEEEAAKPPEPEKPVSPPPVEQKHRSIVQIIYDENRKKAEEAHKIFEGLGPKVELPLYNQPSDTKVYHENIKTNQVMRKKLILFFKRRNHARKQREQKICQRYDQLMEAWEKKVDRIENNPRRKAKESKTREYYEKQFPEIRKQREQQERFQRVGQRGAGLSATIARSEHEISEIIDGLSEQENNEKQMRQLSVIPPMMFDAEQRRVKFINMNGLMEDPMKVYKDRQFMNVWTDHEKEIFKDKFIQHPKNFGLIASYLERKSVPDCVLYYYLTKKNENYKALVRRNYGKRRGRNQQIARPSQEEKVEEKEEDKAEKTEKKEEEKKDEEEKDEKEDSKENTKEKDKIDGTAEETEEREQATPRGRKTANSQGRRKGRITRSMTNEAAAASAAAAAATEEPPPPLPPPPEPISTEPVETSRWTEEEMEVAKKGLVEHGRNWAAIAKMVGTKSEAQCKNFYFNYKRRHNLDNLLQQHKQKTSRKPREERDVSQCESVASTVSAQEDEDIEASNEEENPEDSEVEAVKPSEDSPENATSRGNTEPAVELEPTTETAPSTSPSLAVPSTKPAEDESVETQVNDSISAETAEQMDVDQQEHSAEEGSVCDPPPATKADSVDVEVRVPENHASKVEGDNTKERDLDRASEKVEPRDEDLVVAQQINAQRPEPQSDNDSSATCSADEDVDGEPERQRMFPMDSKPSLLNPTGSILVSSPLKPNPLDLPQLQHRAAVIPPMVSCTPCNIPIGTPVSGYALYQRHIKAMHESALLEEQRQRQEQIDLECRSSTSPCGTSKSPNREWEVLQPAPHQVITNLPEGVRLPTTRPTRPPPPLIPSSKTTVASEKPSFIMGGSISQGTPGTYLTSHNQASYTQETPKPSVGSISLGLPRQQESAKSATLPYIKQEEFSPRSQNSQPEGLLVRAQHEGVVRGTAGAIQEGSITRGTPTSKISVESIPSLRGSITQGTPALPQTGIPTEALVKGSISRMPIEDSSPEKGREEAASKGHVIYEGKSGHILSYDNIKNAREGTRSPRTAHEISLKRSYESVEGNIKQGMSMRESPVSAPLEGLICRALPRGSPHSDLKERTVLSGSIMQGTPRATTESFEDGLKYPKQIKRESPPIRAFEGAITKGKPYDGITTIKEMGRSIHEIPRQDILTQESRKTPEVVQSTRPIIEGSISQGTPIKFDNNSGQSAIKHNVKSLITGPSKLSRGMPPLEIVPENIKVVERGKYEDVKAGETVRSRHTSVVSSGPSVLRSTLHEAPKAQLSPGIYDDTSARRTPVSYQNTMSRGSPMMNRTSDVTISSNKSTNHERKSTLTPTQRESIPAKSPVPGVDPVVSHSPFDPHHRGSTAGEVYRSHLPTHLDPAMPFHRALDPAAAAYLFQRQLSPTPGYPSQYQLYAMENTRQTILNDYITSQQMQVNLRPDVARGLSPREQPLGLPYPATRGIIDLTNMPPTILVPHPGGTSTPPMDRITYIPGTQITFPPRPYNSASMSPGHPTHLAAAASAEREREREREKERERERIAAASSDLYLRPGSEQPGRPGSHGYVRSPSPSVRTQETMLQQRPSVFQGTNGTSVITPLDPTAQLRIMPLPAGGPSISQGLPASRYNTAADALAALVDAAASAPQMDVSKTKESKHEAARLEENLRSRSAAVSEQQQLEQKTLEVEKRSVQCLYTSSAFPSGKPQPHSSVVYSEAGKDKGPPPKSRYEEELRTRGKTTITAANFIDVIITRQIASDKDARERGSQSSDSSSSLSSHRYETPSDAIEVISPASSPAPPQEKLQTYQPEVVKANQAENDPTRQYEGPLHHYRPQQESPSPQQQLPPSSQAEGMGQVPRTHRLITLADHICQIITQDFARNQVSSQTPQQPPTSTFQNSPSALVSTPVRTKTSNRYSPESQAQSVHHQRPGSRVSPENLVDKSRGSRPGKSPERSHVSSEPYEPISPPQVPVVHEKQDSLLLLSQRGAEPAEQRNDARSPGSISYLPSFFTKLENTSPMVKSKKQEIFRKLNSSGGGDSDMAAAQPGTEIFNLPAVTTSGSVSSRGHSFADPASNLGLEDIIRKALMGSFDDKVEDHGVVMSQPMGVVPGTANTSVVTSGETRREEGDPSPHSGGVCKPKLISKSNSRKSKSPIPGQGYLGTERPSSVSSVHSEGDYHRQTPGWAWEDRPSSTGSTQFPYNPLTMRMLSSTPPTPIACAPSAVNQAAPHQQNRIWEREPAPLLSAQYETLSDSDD
T2 sequence (O60907 whole entry partner): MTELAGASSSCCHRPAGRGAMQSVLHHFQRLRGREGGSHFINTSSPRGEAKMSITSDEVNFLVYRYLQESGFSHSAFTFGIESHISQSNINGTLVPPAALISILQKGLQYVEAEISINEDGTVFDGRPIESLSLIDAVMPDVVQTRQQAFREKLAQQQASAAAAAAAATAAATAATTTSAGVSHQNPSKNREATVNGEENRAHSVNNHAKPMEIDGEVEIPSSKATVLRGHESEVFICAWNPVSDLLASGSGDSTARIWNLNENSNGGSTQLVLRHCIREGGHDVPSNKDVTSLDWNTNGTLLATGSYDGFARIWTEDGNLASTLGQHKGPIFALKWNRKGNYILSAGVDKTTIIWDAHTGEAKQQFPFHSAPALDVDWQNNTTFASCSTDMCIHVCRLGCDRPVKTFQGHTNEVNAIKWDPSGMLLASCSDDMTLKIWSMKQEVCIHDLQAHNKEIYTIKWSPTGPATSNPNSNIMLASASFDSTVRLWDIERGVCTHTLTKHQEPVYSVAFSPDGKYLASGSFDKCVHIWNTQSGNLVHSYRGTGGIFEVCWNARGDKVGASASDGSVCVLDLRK
T2 sequence (Q9BZK7 whole entry partner): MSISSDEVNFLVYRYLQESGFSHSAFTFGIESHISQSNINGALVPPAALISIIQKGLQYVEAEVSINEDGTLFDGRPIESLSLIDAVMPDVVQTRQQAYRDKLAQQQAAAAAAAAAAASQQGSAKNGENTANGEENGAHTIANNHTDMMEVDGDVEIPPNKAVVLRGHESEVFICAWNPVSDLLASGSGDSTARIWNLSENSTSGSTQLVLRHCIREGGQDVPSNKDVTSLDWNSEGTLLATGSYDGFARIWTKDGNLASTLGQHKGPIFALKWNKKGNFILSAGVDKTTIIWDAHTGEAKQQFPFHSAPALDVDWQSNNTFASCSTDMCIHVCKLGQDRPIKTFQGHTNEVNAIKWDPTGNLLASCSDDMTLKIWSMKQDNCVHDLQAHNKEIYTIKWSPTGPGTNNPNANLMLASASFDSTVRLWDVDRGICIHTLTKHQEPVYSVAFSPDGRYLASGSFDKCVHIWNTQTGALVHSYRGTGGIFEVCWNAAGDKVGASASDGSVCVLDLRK
T2 sequence (Q13227 whole entry partner): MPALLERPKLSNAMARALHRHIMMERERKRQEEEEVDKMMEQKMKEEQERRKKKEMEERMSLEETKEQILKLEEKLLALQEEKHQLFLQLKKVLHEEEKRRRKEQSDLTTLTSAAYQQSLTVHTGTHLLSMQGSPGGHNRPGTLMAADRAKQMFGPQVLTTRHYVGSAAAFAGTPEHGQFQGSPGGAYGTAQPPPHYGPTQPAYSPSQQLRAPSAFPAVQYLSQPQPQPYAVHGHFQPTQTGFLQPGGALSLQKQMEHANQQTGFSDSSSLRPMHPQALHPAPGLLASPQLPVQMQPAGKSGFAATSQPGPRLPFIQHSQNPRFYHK
HDAC3-NCoR complex, sequence (O15379 whole entry, one chain of several): as the sequence (O15379 whole entry) above

Turning to `CCCCOc1ccc(CC(=O)NO)cc1` [bufexamac], the Kd was 599 µM at HDAC3-NCoR complex (setting [2]); above 59.7 µM at HDAC3-NCoR complex (setting [3]); 418 µM at HDAC3-NCoR complex (setting [4]); 542 µM on HDAC3-NCoR complex (setting [5]); 530 µM at HDAC3-NCoR complex (setting [6]); 151 µM in experiment [1]. Further, the Kd on HDAC8 is 243 µM; on HDAC3, 348 µM; at HDAC2 it was above 59.7 µM.
Take `O=C(CCCCCCC(=O)Nc1ccccc1)NO` [SAHA, suberoylanilide hydroxamic acid]: the IC50 was 10 µM at HSPD1 (IC50, HSPD1, mix of Jurkat and Ramos cell lysates); at least 10 µM at HSPD1 (read-out: IC50); 2.5 µM in the experiment on GATAD2B; 1.1 µM at ISOC1 (IC50, ISOC1, K-562 cell lysate); 2.19 µM on ISOC1 (IC50, ISOC1, mix of Jurkat and Ramos cell lysates); 0.61 µM with MBD3. For the same compound, the IC50 at BZW2 (IC50, BZW2, K-562 cell lysate) came to 3.07 µM; at BZW2 (IC50, BZW2, mix of Jurkat and Ramos cell lysates) it was 10 µM; in the experiment with SMARCC2 (K-562 cell lysate), 10 µM; in the experiment with SMARCC2 (setting [7]) it was 10 µM; in the experiment on MTA2 (K-562 cell lysate), 10 µM; with MTA2 (setting [7]), 0.53 µM. For the same compound, the 50% inhibitory concentration (IC50) in the experiment on DNTTIP1 was 0.48 µM; at ALDH2 (IC50, ALDH2, K-562 cell lysate) it was 0.63 µM; at ALDH2 (IC50, ALDH2, mix of Jurkat and Ramos cell lysates) it was 4.81 µM; in the experiment with MTA3 (K-562 cell lysate) it was 1.93 µM; in the experiment on MTA3 (setting [7]), 1.8 µM and 1.82 µM; in the experiment on RBBP7, 10 µM.
`Nc1ccccc1NC(=O)c1ccc(CNC(=O)OCc2cccnc2)cc1` [MS-275]: the IC50 on HSPD1 (read-out: IC50) was at least 300 µM; in the experiment with GATAD2B it was 300 µM; on ISOC1 (read-out: IC50) it was at least 300 µM; in the experiment with MBD3, 300 µM; at BZW2 (read-out: IC50) it was at least 300 µM; in the experiment on SMARCC2 (K-562 cell lysate), 300 µM. Besides, the IC50 is 300 µM with MTA2 (K-562 cell lysate); 300 µM in the experiment on DNTTIP1; at least 300 µM at ALDH2 (read-out: IC50); 300 µM with MTA3 (K-562 cell lysate); 300 µM in the experiment on RBBP7.
For the compound `Nc1ccccc1NC(=O)CCCCCCC(=O)Nc1ccccc1` [BML-210], the Kd on HDAC3-NCoR complex (setting [2]) is 4 µM; on HDAC3-NCoR complex (setting [3]), 7 µM; on HDAC3-NCoR complex (setting [4]) it was 15 µM; at HDAC3-NCoR complex (setting [5]), 4 µM; on HDAC3-NCoR complex (setting [6]), 4 µM; in [1] it was above 85 µM. Besides, the Kd at HDAC8 is above 85 µM; at HDAC3, 7 µM; at HDAC2 it was 35 µM. In addition, at HDAC3 (K562 cell extract, compared with SAHA), the “selectivity for HDAC3 over HDAC1/HDAC2 (in words)” value was “increase in selectivity for HDAC3 over HDAC1/HDAC2”.
